Usually solubility stands for the concentration that dissolves in the medium under given conditions.

Solubility data for one molecule are collected here from patent US20150224058A1, “FORMULATIONS OF FLIBANSERIN” (Sprout Pharmaceuticals Inc., priority 2008, published 2015).

Structures are written as SMILES. In brackets after ≈: the same amount, converted by molar mass.

The nature of the series: Solubility of flibanserin in aqueous media. In kind it is physicochemical. The note with it: aqueous buffer; in phosphate buffer at pH 5.0. From the text:
This marginal solubility at higher pH-values of flibanserin makes it difficult to develop extended release dosage forms or in some case even immediate release dosage forms for the following reasons. There is a natural pH gradient from the acidity of the stomach where the pH of physiological fluids are typically around 1-2, through the weakly acidic duodenum to the virtually neutral environment of the small intestine where the pH is in the range of 5-8. There are however cases of non-acidic stomach conditions due to either low production of hydrochloric acid caused by the physiology of the patients (this percentage increases form about 2-10% in young patients to about 10 to 40% in elderly patients) or by coadministration of antacids such as basic agents, H2-blockers or proton pump inhibitors. In those cases dissolution of even immediate release formulations (IRE) may be incomplete in the stomach and absorption might be incomplete or at least delayed.
Within the meaning of the present invention, supersaturation occurs if the active ingredient remains in dissolved status at concentrations far above its saturation solubility in the same aqueous system. […]

`O=c1[nH]c2ccccc2n1CCN1CCN(c2cccc(C(F)(F)F)c2)CC1` [Flibanserin, 1,3-dihydro-1-[2-[4-[3-(trifluoromethyl)phenyl]-1-piperazinyl]ethyl]-2H-benzimidazole-2-one] had a solubility of 10 µg/mL (≈ 25.6 µM).
